In patent US7049289B1, “Labelled glutamine and lysine analogues” (Amersham PLC, priority 1998, dated 2006):

How the values were obtained:
[1] = target: T1, fibrin (in vitro human plasma clot) (Homo sapiens, UniProt P02671+P02675+P02679); assay: Incorporation into human plasma clots in vitro; format: biochemical; settings: for % specific uptake: % retained (with thrombin) - % retained (no thrombin); for % retained (no thrombin): control without thrombin and calcium chloride (non-specific binding); for % retained (with thrombin): human plasma clot, 60 minutes, ca. 20° C.
T1 construct: about 400 μl of human plasma containing the radiolabelled substrate; from tissue; host or cells: human plasma, clotted in vitro with added thrombin and calcium chloride
T1 sequence (P02671 20-644 isoform P02671-2 limits assumed): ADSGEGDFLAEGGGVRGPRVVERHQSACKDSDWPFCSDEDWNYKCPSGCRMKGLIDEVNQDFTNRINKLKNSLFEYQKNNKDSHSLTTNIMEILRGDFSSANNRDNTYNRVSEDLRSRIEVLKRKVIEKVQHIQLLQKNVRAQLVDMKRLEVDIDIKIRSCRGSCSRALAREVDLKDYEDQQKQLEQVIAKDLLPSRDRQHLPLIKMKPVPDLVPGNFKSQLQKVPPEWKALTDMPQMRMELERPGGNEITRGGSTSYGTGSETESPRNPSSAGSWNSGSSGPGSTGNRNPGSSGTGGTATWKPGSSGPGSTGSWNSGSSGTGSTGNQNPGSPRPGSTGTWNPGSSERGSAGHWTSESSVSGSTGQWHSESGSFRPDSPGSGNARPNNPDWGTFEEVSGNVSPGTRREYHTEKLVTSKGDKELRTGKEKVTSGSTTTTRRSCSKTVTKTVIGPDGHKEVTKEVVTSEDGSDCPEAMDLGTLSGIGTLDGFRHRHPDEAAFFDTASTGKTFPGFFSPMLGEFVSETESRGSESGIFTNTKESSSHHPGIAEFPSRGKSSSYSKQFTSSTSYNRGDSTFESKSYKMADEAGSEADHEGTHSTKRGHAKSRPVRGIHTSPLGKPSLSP
T1 sequence (P02675 45-491 limits assumed): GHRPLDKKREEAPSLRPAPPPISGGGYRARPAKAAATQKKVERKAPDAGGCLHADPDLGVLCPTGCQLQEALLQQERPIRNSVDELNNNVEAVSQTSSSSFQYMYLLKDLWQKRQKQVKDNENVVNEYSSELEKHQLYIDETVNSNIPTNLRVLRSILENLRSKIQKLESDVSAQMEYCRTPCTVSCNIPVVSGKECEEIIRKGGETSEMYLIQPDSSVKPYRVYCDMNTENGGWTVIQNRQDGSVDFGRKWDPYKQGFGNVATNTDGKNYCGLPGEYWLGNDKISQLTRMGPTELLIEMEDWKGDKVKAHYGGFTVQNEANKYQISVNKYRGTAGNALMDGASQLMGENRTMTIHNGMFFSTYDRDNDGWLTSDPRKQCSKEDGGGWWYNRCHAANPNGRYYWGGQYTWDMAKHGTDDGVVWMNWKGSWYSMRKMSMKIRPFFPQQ
T1 sequence (P02679 27-437 isoform P02679-2 limits assumed): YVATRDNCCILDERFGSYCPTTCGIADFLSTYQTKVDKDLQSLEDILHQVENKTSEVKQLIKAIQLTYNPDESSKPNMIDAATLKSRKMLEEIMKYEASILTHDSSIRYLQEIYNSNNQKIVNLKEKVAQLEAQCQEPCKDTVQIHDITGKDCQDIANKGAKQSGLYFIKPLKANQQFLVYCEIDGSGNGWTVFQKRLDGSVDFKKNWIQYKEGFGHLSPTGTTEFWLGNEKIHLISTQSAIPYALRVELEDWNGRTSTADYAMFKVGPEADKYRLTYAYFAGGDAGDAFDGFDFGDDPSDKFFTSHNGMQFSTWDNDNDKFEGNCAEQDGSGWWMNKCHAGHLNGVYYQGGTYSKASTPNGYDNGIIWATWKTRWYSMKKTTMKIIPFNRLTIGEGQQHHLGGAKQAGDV
Method: Incorporation of radiolabelled substrates into fibrin was investigated by induction of an in vitro human plasma clot in the following manner. To a siliconised 5 ml glass vial was added, (a) 800 μl of Tris(hydroxymethyl)aminomethane buffered saline pH 7.5 containing calcium chloride (50 mM Tris, 150 mM sodium chloride, 4 mM calcium chloride.), (b) about 40 μl of physiological salt solution containing 100 units of thrombin per ml, (c) about 400 μl of human plasma containing the radiolabelled substrate at a concentration of typically 10 kBq/ml. To aid induction of clot a roughened glass rod was added to the reaction vial. Control vials were prepared similarly but with the omission of thrombin and calcium chloride.
After incubation of the test solution at ambient laboratory temperature (ca. 20° C.) for 60 minutes the reaction was discontinued with the addition of about 400 μl of a cold solution of 33.5 mM ethylenediaminetetra-acetic acid disodium salt. Clots were separated from serum by vacuum filtration onto […] nitrocellulose filters (pre-soaked in 1.5% BSA/tris(hydroxymethyl)aminoethae buffered saline pH 7.5 containing 0.1% Tween 20) and washed with about 2×10 ml of tris(hydroxymethyl)aminomethane buffered saline pH 7.5 containing Tween 20 to a final concentration of 0.1% v/v. The proportion of total radioactivity was calculated by counting in suitable detection apparatus.
The fraction of radioactivity retained on the filter, after subtraction of the non-specific binding determined from the control, is a measure of incorporation into the filtered clots.

[2] = Incorporation into clots induced in a rat model (rat inferior vena cava model); format: in vivo, rat (Male Wistar); settings: for % id/g (clot) / Rel. Conc. (cpm/g of clot by dose/g animal): sacrificed after 60 min
Method: The rats (Male Wistar, 250–350 g) were anaesthetised with 15% urethane. After laparotomy, the vena cava was isolated and freed of surrounding fat tissue. […] The compounds were injected 5 min (fresh clot) and 60 min (aged clot) post-induction. After 60 min the animals were sacrificed and the clot removed, weighed and counted. Other tissues e.g. blood, lung, heart, were also dissected and counted. The uptake of tracer into the clot was determined as the relative concentration (cpm/g of clot by dose/g animal) and clot to background tissue.

[3] = Aged Clots: injected 60 min post-induction
[4] = Fresh Clots: injected 5 min post-induction

| Substance | % specific uptake [1] [%] | % retained (no thrombin) [1] [%] | % retained (with thrombin) [1] [%] | in vitro clot uptake (in words) [1] | Clot/blood ([2]; Aged Clots) | Clot/heart ([2]; Aged Clots) | Clot/liver ([2]; Aged Clots) | Clot/lung ([2]; Aged Clots) | % id/g (clot) [2, 3] [% id/g] | Rel. Conc. (cpm/g of clot by dose/g animal) [2, 3] | Clot/blood ([2]; Fresh Clots) | Clot/heart ([2]; Fresh Clots) | Clot/liver ([2]; Fresh Clots) | Clot/lung ([2]; Fresh Clots) | % id/g (clot) [2, 4] [% id/g] | Rel. Conc. (cpm/g of clot by dose/g animal) [2, 4] |
| --- | --- | --- | --- | --- | --- | --- | --- | --- | --- | --- | --- | --- | --- | --- | --- | --- |
| (CF3)2(C6H3)-NQEQVSPYTLLKG-Pn216 ({(CF3)2(C6H3)}-NQEQVSPYTLLKG-Pn216; also: 99mTc complex) [^99mTc-Cmpd 10] | 65.7 | 0.2 | 65.9 | – | 6 | 16 | 5 | 6 | 2.9 ± 1.4 | 6.3 ± 2.7 | 4 | 10 | 5 | 5 | 2.9 ± 0.5 | 6.5 ± 1.2 |
| Ac-NQEQVSP(I2-Y)TLLKG-Pn216 [^99mTc-Cmpd 23] | 63.7 | 0.1 | 63.8 | – | 13 | 1 | 1 | 1 | 7.5 ± 2.5 | 17.6 ± 4.6 | 6 | 17 | 21 | 6 | 7.6 ± 1.8 | 18.2 ± 4.1 |
| Ac-LEFDTQSKNILG-Pn216 (also: 99mTc complex) [^99mTc-Cmpd 47] | 49.8 | 0.1 | 49.9 | – | 1 | 46 | 44 | 24 | 0.5 ± 0.3 | 1.5 ± 0.8 | 0.8 | 3 | 1 | 1 | 0.8 ± 0.7 | 2.2 ± 2.0 |
| Ac-NQEAVSPYTLLKG-Pn216 (also: 99mTc complex) [^99mTc-Cmpd 13] | 56.8 | 0.2 | 57.0 | – | 6 | 29 | 19 | 9 | 4.5 ± 1.5 | 10.4 ± 3.0 | 7 | 18 | 18 | 8 | 3.4 ± 0.7 | 7.9 ± 1.6 |

More lines, main results first:

| % specific uptake [1] [%] | % retained (no thrombin) [1] [%] | % retained (with thrombin) [1] [%] | in vitro clot uptake (in words) [1] | Substance | Clot/blood ([2]; Aged Clots) | Clot/heart ([2]; Aged Clots) | Clot/liver ([2]; Aged Clots) | Clot/lung ([2]; Aged Clots) | % id/g (clot) [2, 3] [% id/g] | Rel. Conc. (cpm/g of clot by dose/g animal) [2, 3] | Clot/blood ([2]; Fresh Clots) | Clot/heart ([2]; Fresh Clots) | Clot/liver ([2]; Fresh Clots) | Clot/lung ([2]; Fresh Clots) | % id/g (clot) [2, 4] [% id/g] | Rel. Conc. (cpm/g of clot by dose/g animal) [2, 4] |
| --- | --- | --- | --- | --- | --- | --- | --- | --- | --- | --- | --- | --- | --- | --- | --- | --- |
| 7.6 | 0.1 | 7.7 | significant reduction in uptake | Ac-NQEQ(D-V)(D-S)P(D-Y)TLL(D-K)G-Pn216 [^99mTc-Cmpd 31] | 0.6 | 9 | 2 | 4 | 0.2 ± 0.1 | 0.6 ± 0.2 | 0.6 | 2 | 3 | 1 | 0.3 ± 0.2 | 0.9 ± 0.6 |
| 19.8 | 0.4 | 20.2 | – | Ac-(D-N)QEQVSP(D-Y)TLL(D-K)G-Pn216 [^99mTc-Cmpd 32] | 3 | 43 | 21 | 15 | 0.7 ± 0.1 | 2.0 ± 0.4 | 10 | 26 | 27 | 11 | 1.7 ± 0.7 | 4.6 ± 1.9 |
| 15.3 | 0.6 | 15.9 | – | Ac-NQEQ(D-V)(D-S)(D-P)(D-Y)(D-T)(D-L)(D-L)(D-K)G-Pn44 [^99mTc-Cmpd 35] | 1 | 1 | 2 | 0.5 | 0.6 ± 0.1 | 1.5 ± 0.4 | 2 | 4 | 2 | 2 | 1.2 ± 0.2 | 3.7 ± 0.8 |
| 56.4 | 0.4 | 56.8 | – | Z-NQEQVSP(I-Y)TLLKG-Pn216 [^99mTc-Cmpd 24] | 15 | 40 | 37 | 20 | 4.1 ± 2.5 | 11.9 ± 8.0 | 10 | 21 | 11 | 10 | 4.0 ± 2.2 | 11.1 ± 6.7 |
| 6.1 | 0.2 | 6.3 | significant reduction in uptake | p-EAQIVG-Pn44 [^99mTc-Cmpd 46] | 4 | 5 | 1 | 3 | 0.5 ± 0.2 | 1.3 ± 0.6 | 5 | 6 | 1 | 3 | 0.8 ± 0.4 | 2.0 ± 0.7 |
| 12.8 | 0.2 | 13.0 | – | Fmoc-NQQQ(D-V)S(OMe)PLG-Pn216 [^99mTc-Cmpd 37] | 0.4 | 2 | 9 | 1 | 0.2 ± 0.03 | 0.5 ± 0.1 | 0.6 | 1 | 1 | 0.7 | 0.4 ± 0.2 | 0.9 ± 0.4 |
